From patent US20040082635A1, “Fused cyclic compounds and medicinal use thereof” (priority 2001, published 2004)
Counter-ions that a name gives are not always drawn. Like-named read-outs stand apart in the source and are kept apart here.

Molecular target: T1, HCV polymerase (Hepatitis C virus genotype 1b, UniProt P26663)
T1 construct: a region encoding NS5B (591 amino acids; J Virol 1991 Mar, 65(3), 1105-13) was amplified by PCR; 6 His (N); made in house; host or cells: Escherichia coli
Assay: biochemical

[1] = read-out: HCV polymerase inhibitory activity IC50

T1 sequence (P26663 2420-3010): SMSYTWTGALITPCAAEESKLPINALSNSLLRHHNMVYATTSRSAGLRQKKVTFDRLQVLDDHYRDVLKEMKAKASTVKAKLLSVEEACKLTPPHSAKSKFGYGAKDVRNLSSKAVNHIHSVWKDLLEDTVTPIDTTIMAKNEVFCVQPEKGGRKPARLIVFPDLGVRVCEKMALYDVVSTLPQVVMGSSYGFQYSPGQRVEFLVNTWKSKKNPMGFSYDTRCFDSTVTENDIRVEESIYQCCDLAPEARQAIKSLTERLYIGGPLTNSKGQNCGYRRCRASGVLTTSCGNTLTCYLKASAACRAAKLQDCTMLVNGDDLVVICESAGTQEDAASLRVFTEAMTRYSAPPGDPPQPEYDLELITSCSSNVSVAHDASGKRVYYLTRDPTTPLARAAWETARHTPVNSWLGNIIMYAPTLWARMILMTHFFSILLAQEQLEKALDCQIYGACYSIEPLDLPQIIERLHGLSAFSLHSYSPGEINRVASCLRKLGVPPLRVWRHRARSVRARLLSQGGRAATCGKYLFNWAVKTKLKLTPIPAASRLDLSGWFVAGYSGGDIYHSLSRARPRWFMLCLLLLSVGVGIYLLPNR

SMILES | IC50 [1] [µM] | IC50 (HCV polymerase inhibitory activity IC50) [µM]
CC(C)(C)c1ccc(COc2ccc(-c3nc4cc(C(=O)O)ccc4n3C3CCCC3)cc2)cc1 [Example 43, 2-[4-(4-tert-butylbenzyloxy)phenyl]-1-cyclopentylbenzimidazole-5-carboxylic acid] | 0.58 | 
O=C(O)c1ccc2c(c1)nc(-c1ccc(OCc3cc(C(=O)Nc4ccccc4)ccc3-c3ccc(Cl)cc3)cc1)n2C1CCCCC1 [Example 332, 2-{4-[2-(4-chlorophenyl)-5-(phenylcarbamoyl)benzyloxy]phenyl}-1-cyclohexylbenzimidazole-5-carboxylic acid hydrochloride] | 0.023 | 
O=C(O)c1ccc2c(c1)nc(-c1ccc(OC3CCN(Cc4ccc(Cl)cc4)CC3)cc1)n2C1CCCCC1 [Example 223, 2-{4-[1-(4-chlorobenzyl)-4-piperidyloxy]phenyl}-1-cyclohexylbenzimidazole-5-carboxylic acid] | 0.21 | 
O=C(O)c1ccc2c(c1)nc(-c1ccc(Oc3cccc(OCc4ccnc(Cl)c4)c3)cc1)n2C1CCCCC1 [Example 227, 2-{4-[3-{(2-chloro-4-pyridyl)methoxy}phenoxy]phenyl}-1-cyclohexylbenzimidazole-5-carboxylic acid] | 0.045 | 
CC(=O)N(C)c1ccc(-c2ccc(Cl)cc2)c(COc2ccc(-c3nc4cc(C(=O)O)ccc4n3C3CCCCC3)c(F)c2)c1 [Example 463, 2-[4-{2-(4-chlorophenyl)-5-(N-acetyl-N-methylamino)benzyloxy}-2-fluorophenyl]-1-cyclohexylbenzimidazole-5-carboxylic acid hydrochloride] | 0.026 | 
CC(C)(C)c1ccc(COc2cccc(Oc3ccc(-c4nc5cc(C(=O)O)ccc5n4C4CCCCC4)cc3)c2)cc1 [Example 212, 2-{4-[3-(4-tert-butylbenzyloxy)phenoxy]phenyl}-1-cyclohexylbenzimidazole-5-carboxylic acid] | 0.23 | 
CC(C)NC(=O)c1cccc(-c2ccc(Cl)cc2)c1COc1ccc(-c2nc3cc(C(=O)O)ccc3n2C2CCCCC2)c(F)c1 [Example 448, 2-[4-{2-(4-chlorophenyl)-6-(isopropylaminocarbonyl)benzyloxy}-2-fluorophenyl]-1-cyclohexylbenzimidazole-5-carboxylic acid hydrochloride] | 0.2 | 
CC(C)NC(=O)c1ccc(-c2ccc(Cl)cc2)c(COc2ccc(-c3nc4cc(C(=O)O)ccc4n3C3CCCCC3)cc2)c1 [Example 330, 2-{4-[2-(4-chlorophenyl)-5-(isopropylcarbamoyl)benzyloxy]phenyl}-1-cyclohexylbenzimidazole-5-carboxylic acid hydrochloride] | 0.011 | 
O=C(O)c1ccc2c(c1)nc(-c1ccc(OC(c3ccc(F)cc3)c3cccc(C(=O)N4CCC(O)CC4)c3)cc1F)n2C1CCCCC1 (centres unmarked) [Example 443, 2-{4-[{3-(4-hydroxypiperidyl-1-ylcarbonyl)phenyl}(4-fluorophenyl)methoxy]-2-fluorophenyl}-1-cyclohexylbenzimidazole-5-carboxylic acid hydrochloride] | 0.03 | 
CC(C)NC(=O)c1ccc(-c2ccc(F)c(Cl)c2)c(COc2ccc(-c3nc4cc(C(=O)O)ccc4n3C3CCCCC3)c(F)c2)c1 [Example 399, 2-{4-[2-(3-chloro-4-fluorophenyl)-5-(isopropylcarbamoyl)-benzyloxy]-2-fluorophenyl}-1-cyclohexylbenzimidazole-5-carboxylic acid hydrochloride] | 0.032 | 
Nc1nc(-c2ccc(-c3ccc(Cl)cc3)c(COc3ccc(-c4nc5cc(C(=O)O)ccc5n4C4CCCCC4)cc3)c2)cs1 [Example 358, 2-{4-[5-(2-aminothiazol-4-yl)-2-(4-chlorophenyl)benzyloxy]-phenyl}-1-cyclohexylbenzimidazole-5-carboxylic acid dihydrochloride] | 0.017 | 
CN(C)C(=O)c1cc(COc2ccc(-c3nc4cc(C(=O)O)ccc4n3C3CCCCC3)c(F)c2)cc(-c2ccc(Cl)cc2)c1 [Example 372, 2-{4-[3-(4-chlorophenyl)-5-(dimethylcarbamoyl)benzyloxy]-2-fluorophenyl}-1-cyclohexylbenzimidazole-5-carboxylic acid hydrochloride] | 0.033 | 
Cc1nc(COc2cccc(Oc3ccc(-c4nc5cc(C(=O)O)ccc5n4C4CCCCC4)cc3)c2)cs1 [Example 220, 1-cyclohexyl-2-{4-[3-{(2-methyl-4-thiazolyl)methoxy}phenoxy]-phenyl}benzimidazole-5-carboxylic acid] | 0.073 | 
CN(C)C(=O)c1ccc(-c2ccc(Cl)cc2)c(COc2ccc(-c3nc4cc(C(=O)O)ccc4n3C3CCCCC3)cc2)c1 [Example 232, 2-{4-[2-(4-chlorophenyl)-5-dimethylcarbamoylbenzyloxy]phenyl}-1-cyclohexylbenzimidazole-5-carboxylic acid] |  | 0.015
CCNC(=O)Nc1ccc(-c2ccc(Cl)cc2)c(COc2ccc(-c3nc4cc(C(=O)O)ccc4n3C3CCCCC3)c(F)c2)c1 [Example 394, 2-{4-[2-(4-chlorophenyl)-5-{(ethylcarbamoyl)amino}benzyloxy]-2-fluorophenyl}-1-cyclohexylbenzimidazole-5-carboxylic acid hydrochloride] | 0.019 | 
O=C(O)c1ccc2c(c1)nc(-c1ccc(OCc3cc(-c4nsc(=O)[nH]4)ccc3-c3ccc(Cl)cc3)cc1F)n2C1CCCCC1 [Example 376, 2-{4-[2-(4-chlorophenyl)-5-(2,5-dihydro-5-oxo-4H-1,2,4-thiadiazol-3-yl)benzyloxy]-2-fluorophenyl}-1-cyclohexylbenzimidazole-5-carboxylic acid hydrochloride] | 0.014 | 
CC(C)N(C)C(=O)c1ccc(-c2ccc(Cl)cc2)c(COc2ccc(-c3nc4cc(C(=O)O)ccc4n3C3CCCCC3)c(F)c2)c1 [Example 386, 2-{4-[2-(4-chlorophenyl)-5-(N-isopropyl-N-methylcarbamoyl)-benzyloxy]-2-fluorophenyl}-1-cyclohexylbenzimidazole-5-carboxylic acid hydrochloride] | 0.018 | 
COc1ccc(-c2ccc(Cl)cc2)c(COc2ccc(-c3nc4cc(C(=O)O)ccc4n3C3CCSCC3)cc2)c1 [Example 264, 2-{4-[2-(4-chlorophenyl)-5-methoxybenzyloxy]phenyl}-1-(4-tetrahydrothiopyranyl)benzimidazole-5-carboxylic acid] | < 0.01 | 
NC(=O)c1ccc(-c2ccc(Cl)cc2COc2ccc(-c3nc4cc(C(=O)O)ccc4n3C3CCCCC3)cc2)cc1 [Example 195, 2-{4-[2-(4-carbamoylphenyl)-5-chlorobenzyloxy]phenyl}-1-cyclohexylbenzimidazole-5-carboxylic acid] | 0.023 | 
COc1ccccc1Oc1ccc(-c2nc3cc(C(=O)O)ccc3n2C2CCCCC2)cc1 [Example 108, 1-cyclohexyl-2-[4-(2-methoxyphenoxy)phenyl]benzimidazole-5-carboxylic acid] | 0.21 | 
CN(C)C(=O)COc1ccccc1Oc1ccc(-c2nc3cc(C(=O)O)ccc3n2C2CCCCC2)cc1 [Example 191, 1-cyclohexyl-2-{4-[2-(dimethylcarbamoylmethoxy)phenoxy]-phenyl}benzimidazole-5-carboxylic acid] | 0.43 | 
CC(C)CNC(=O)c1ccc(-c2ccc(Cl)cc2)c(COc2ccc(-c3nc4cc(C(=O)O)ccc4n3C3CCCCC3)c(F)c2)c1 [Example 380, 2-{4-[2-(4-chlorophenyl)-5-(isobutylcarbamoyl)benzyloxy]-2-fluorophenyl}-1-cyclohexylbenzimidazole-5-carboxylic acid hydrochloride] | 0.023 | 
CCN(c1ccc(-c2ccc(Cl)cc2)c(COc2ccc(-c3nc4cc(C(=O)O)ccc4n3C3CCCCC3)c(F)c2)c1)S(C)(=O)=O [Example 461, 2-[4-{2-(4-chlorophenyl)-5-[N-ethyl-N-(methylsulfonyl)amino]-benzyloxy}-2-fluorophenyl]-1-cyclohexylbenzimidazole-5-carboxylic acid hydrochloride] | 0.021 | 
CCN(C)C(=O)c1ccc(-c2ccc(Cl)cc2)c(COc2ccc(-c3nc4cc(C(=O)O)ccc4n3C3CCCCC3)c(F)c2)c1 [Example 384, 2-{4-[2-(4-chlorophenyl)-5-(N-ethyl-N-methylcarbamoyl)benzyloxy]-2-fluorophenyl}-1-cyclohexylbenzimidazole-5-carboxylic acid hydrochloride] | 0.016 | 
NC(=O)c1ccc(COc2ccc(-c3nc4cc(C(=O)O)ccc4n3C3CCCCC3)cc2)c(-c2ccc(Cl)cc2)c1 [Example 225, 2-{4-[4-carbamoyl-2-(4-chlorophenyl)benzyloxy]phenyl}-1-cyclohexylbenzimidazole-5-carboxylic acid] | 0.014 | 
O=C(O)c1ccc2c(c1)nc(-c1ccc(OCc3ncccc3-c3ccc(Cl)cc3)cc1)n2C1CCCCC1 [Example 235, 2-{4-[{3-(4-chlorophenyl)-2-pyridyl}methoxy]phenyl}-1-cyclohexylbenzimidazole-5-carboxylic acid] | 0.036 | 
O=C(O)c1ccc2c(c1)nc(-c1ccc(OCc3cc(C(=O)N4CCC(O)CC4)ccc3-c3ccc(Cl)cc3)cc1)n2C1CCCC1 [Example 415, 2-{4-[2-(4-chlorophenyl)-5-(4-hydroxypiperidin-1-ylcarbonyl)benzyloxy]phenyl}-1-cyclopentylbenzimidazole-5-carboxylic acid hydrochloride] | 0.019 | 
CCCN(c1ccc(-c2ccc(Cl)cc2)c(COc2ccc(-c3nc4cc(C(=O)O)ccc4n3C3CCCCC3)c(F)c2)c1)S(C)(=O)=O [Example 462, 2-[4-{2-(4-chlorophenyl)-5-[N-(methylsulfonyl)-N-propylamino]benzyloxy}-2-fluorophenyl]-1-cyclohexylbenzimidazole-5-carboxylic acid hydrochloride] | 0.028 | 
CC(C)(C)c1ccc(-c2ccc(Cl)cc2COc2ccc(-c3nc4cc(C(=O)O)ccc4n3C3CCCCC3)cc2)cc1 [Example 145, 2-{4-[2-(4-tert-butylphenyl)-5-chlorobenzyloxy]phenyl}-1-cyclohexylbenzimidazole-5-carboxylic acid] | 0.088 | 
